Here are results for 16 compounds from ChEMBL document CHEMBL1129441, “Derivatives of the triazoloquinazoline adenosine antagonist (CGS15943) are selective for the human A3 receptor subtype” (J Med Chem, 1996).

The target of assay [1] is T1, Adenosine receptor A2a (Rattus norvegicus, UniProt P30543). Briefly: Displacement of [3H]-[…] from Adenosine A2A receptor of rat striatal membranes. It counts as cell membranes, Membrane. A general note: Displacement assays read how much labelled ligand stays bound in the presence of the test substance.
The target in assay [2] is T2, Adenosine receptor A3 (Homo sapiens, UniProt P0DMS8).
T2 sequence (P0DMS8 whole entry): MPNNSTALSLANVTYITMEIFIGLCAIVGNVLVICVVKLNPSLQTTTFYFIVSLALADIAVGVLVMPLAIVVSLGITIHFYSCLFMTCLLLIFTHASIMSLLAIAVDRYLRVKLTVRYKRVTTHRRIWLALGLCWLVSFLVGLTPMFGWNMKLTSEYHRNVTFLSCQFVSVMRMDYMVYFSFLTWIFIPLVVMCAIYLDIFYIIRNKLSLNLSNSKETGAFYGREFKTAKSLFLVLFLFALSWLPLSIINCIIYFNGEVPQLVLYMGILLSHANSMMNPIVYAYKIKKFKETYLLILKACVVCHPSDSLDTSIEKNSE
Kind of assay: biochemical.
Description: In vitro binding affinity at human Adenosine A3 receptor from HEK293 cells by [125I]AB-MECA displacement.

Assay [3] in a line: Relative binding to rat A2A and human A3 adenosine receptors (ratio of IC50).
Assay [4] is described as follows: Relative binding to rat A1 and human A3 adenosine receptors (ratio of IC50).
In assay [5] the target is T3, Adenosine receptor A1 (Rattus norvegicus) (UniProt P25099).
T3 sequence (whole entry): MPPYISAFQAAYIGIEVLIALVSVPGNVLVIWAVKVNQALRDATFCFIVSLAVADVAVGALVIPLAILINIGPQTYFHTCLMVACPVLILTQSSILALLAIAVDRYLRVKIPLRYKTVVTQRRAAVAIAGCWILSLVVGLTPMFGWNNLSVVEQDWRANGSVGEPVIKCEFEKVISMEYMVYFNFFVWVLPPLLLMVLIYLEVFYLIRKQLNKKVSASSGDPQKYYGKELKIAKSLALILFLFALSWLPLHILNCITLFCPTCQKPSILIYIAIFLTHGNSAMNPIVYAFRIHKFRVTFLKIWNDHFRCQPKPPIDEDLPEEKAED
Briefly: Binding affinity for Adenosine A1 receptor from rat cerebral cortex membranes using [3H]-(R)-PIA. It counts as tissue-based. The conditions noted are these: concentration not given here.

The target in assay [6] is Adenosine receptor A2a (Rattus norvegicus) (UniProt P30543). Briefly: (§1) Binding affinity for Adenosine A2A receptor from rat striatal membranes using [3H]-[…]. The settings on record: concentration not given here.
Assay [7] addresses T1, Adenosine receptor A2a. The description is as §1.
Assay [8] addresses T4, Adenosine receptor A1 (Rattus norvegicus, UniProt P25099).
T4 sequence (P25099 whole entry): T3 sequence (whole entry)
Kind of assay: Binding affinity for A1 receptors from rat cerebral cortex membranes using [3H]-(R(-PIA. It counts as tissue-based.

For assay [9], the target named is T4, Adenosine receptor A1. Kind of assay: Displacement of [3H]-(R)-PIA from Adenosine A1 receptor of rat cerebral cortex membranes. It counts as cell membranes, Membrane.
The target in assay [10] is T5, Adenosine receptor A3 (Rattus norvegicus, UniProt P28647).
T5 sequence (P28647 whole entry): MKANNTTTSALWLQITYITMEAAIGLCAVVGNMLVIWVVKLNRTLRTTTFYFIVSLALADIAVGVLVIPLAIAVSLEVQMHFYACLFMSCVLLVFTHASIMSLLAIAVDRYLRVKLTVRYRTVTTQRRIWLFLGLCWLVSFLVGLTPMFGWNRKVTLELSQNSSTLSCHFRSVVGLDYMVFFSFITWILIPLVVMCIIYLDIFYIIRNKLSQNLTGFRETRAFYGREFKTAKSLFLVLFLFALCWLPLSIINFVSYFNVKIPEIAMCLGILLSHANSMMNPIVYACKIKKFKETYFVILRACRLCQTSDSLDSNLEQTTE
Description: Binding affinity for Adenosine A3 receptor from rat striatal membranes

In assay [11] the target is T4, Adenosine receptor A1. Kind of assay: Binding affinity for Adenosine A1 receptor from rat cerebral cortex membranes using [3H](R)-PIA. In kind it is tissue-based.

T1 sequence (P30543 whole entry): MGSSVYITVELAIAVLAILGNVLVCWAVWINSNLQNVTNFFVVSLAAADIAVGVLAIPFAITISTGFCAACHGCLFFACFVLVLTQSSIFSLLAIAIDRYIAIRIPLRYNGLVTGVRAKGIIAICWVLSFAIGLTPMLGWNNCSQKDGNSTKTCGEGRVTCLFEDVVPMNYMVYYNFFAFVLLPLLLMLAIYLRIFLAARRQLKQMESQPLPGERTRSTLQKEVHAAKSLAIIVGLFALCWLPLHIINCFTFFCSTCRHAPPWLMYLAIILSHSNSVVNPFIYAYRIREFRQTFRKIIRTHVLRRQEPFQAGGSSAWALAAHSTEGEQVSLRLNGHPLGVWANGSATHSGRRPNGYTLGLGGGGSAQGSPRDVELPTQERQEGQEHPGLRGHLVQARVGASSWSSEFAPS
Sequence of Adenosine receptor A2a (Rattus norvegicus) (P30543 whole entry): as above

For the compound `NCCCC(=O)Nc1nc2ccc(Cl)cc2c2nc(-c3ccco3)nn12`, the Ki (in general, the dissociation constant of the complex between target and ligand, obtained from inhibition or displacement) was found to be 14.4 nM on Adenosine receptor A2a [1] and 80.8 nM at Adenosine receptor A3 [2]. Moreover, the Ratio is 0.18 in assay [3] and 0.14 in assay [4].
On to `CC(=O)Nc1nc2ccc(Cl)cc2c2nc(-c3ccco3)nn12`, for which the Ki on Adenosine receptor A2a [1] is 36.3 nM.
With `O=C(Nc1nc2ccc(Cl)cc2c2nc(-c3ccc(Br)o3)nn12)c1ccccc1`, the inhibition in assay [5] and in assay [6] was under 10% each time.
Regarding `CCC(=O)Nc1nc2ccc(Cl)cc2c2nc(-c3ccco3)nn12`, the values for the Ratio in assay [3] and in [4] were 14 and 40, respectively.
On Adenosine receptor A2a [1], `CC(C)(C)C(=O)Nc1nc2ccc(Cl)cc2c2nc(-c3ccco3)nn12` registered a Ki of 88.8 nM. Further, the Ratio in assay [3] was 0.36; in assay [4], 0.84.
In turn, `Nc1nc2ccc(Cl)cc2c2nc(-c3ccc(Br)o3)nn12` had a Ki on Adenosine receptor A3 [2] of 64 nM. The IC50 (as a rule, the concentration needed to halve the response being measured) on Adenosine receptor A2a [7] came to 531 nM.
For the compound `CCOC(=O)C1=C(c2ccccc2)Nc2cc(C)c(C(=O)OCC)cc2C1/C=C/c1ccccc1` (stereo not given), the affinity at Adenosine receptor A3 [2] corresponds to a Ki of 0.11 nM. The results for the 50% inhibitory concentration (IC50) at Adenosine receptor A2a [7] and at Adenosine receptor A1 [8] were 4.77 nM and 5.93 nM, respectively.
Consider `O=C(Nc1nc2ccc(Cl)cc2c2nc(-c3ccco3)nn12)c1ccccc1`, for which the inhibitory constant (Ki) on Adenosine receptor A2a [1] came out at 273 nM; on Adenosine receptor A1 [9], 680 nM; at Adenosine receptor A3 [2] it was 3.03 nM. Further, the figures for the Ratio in assay [3] and in assay [4] were 90 and 220, respectively.
On to `Nc1nc2ccc(Cl)cc2c2nc(-c3ccco3)nn12` [CGS-15943], for which, at Adenosine receptor A3 [10], the Ki came to 100000 nM. On Adenosine receptor A2a [7], this compound came in with an IC50 of 3.3 nM.
On to `CC(C)(C)OC(=O)NCCCC(=O)Nc1nc2ccc(Cl)cc2c2nc(-c3ccco3)nn12`, for which the values for the Ki on Adenosine receptor A2a [1] and on Adenosine receptor A3 [2] were 135 nM and 32.9 nM, respectively. Moreover, the Ratio turned out to be 4.1 in assay [3] and 2.8 in [4].
Regarding `CCCC(=O)Nc1nc2ccc(Cl)cc2c2nc(-c3ccco3)nn12`, the Ki at Adenosine receptor A2a [1] was determined as 37.6 nM. In addition, the values for the Ratio in assay [3] and in assay [4] were 2.6 and 2.2, respectively.
The compound `Cc1ccc(-c2oc3ccc(Cl)cc3c(=O)c2Cl)c(OC(C)C)c1` registered an IC50 at Adenosine receptor A2a [7] of over 100 nM. At Adenosine receptor A1 [11], the Ki was over 100000 nM.
With `CCCn1c(=O)n2nc(-c3ccco3)nc2c2cc(Cl)ccc21`, the Ki was determined as 6960 nM at Adenosine receptor A2a [1], 1850 nM at Adenosine receptor A1 [9] and 1810 nM at Adenosine receptor A3 [2]. The Ratio in assay [3] was 3.8; in assay [4], 1.
Taken in the same sequence, the figures for `O=C(Nc1nc2ccc(Cl)cc2c2nc(-c3ccco3)nn12)c1cccc(I)c1` were 310 nM, 200 nM, 23.8 nM, 13 and 8.4.
As for `Oc1nc2ccc(Cl)cc2c2nc(-c3ccco3)nn12`, the Ki on Adenosine receptor A2a [1] came to 4380 nM; on Adenosine receptor A1 [9] it was 3950 nM. The Ratio in assay [3] came to 17; in assay [4] it was 15.
Compound `CCCCC(=O)Nc1nc2ccc(Cl)cc2c2nc(-c3ccco3)nn12` yielded an inhibition constant Ki on Adenosine receptor A2a [1] of 48.8 nM. Further, the results for the Ratio in [3] and in assay [4] were 2.3 and 1.3, respectively.
